For experiment [1], the target named is T1, Prostaglandin G/H synthase 2 (Ovis aries, UniProt P79208).
T1 sequence (P79208 whole entry): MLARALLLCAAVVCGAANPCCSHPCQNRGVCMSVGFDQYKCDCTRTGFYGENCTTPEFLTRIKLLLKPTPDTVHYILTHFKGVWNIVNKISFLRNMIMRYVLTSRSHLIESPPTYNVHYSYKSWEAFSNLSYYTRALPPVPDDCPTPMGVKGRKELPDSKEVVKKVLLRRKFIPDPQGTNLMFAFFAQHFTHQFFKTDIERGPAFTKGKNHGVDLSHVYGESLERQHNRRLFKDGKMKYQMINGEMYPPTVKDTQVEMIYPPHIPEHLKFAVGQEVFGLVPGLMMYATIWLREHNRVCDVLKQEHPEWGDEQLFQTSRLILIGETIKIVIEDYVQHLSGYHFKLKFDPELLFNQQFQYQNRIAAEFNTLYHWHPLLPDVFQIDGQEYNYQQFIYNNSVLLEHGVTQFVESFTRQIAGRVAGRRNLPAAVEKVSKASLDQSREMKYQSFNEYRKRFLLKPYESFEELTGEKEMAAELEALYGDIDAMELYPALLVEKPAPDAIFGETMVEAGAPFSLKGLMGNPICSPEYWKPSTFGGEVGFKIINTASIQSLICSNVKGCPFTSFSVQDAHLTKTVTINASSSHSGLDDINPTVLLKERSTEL
Briefly: In Vitro Cyclooxygenase (COX) Inhibition Assay. The procedure:
(§1) Different concentrations of either celecoxib or tested compounds were incubated with the enzymes for a period of 5 min at 25 °C. After the incubation period the colorimetric substrate and arachidonic acid were added after that the absorbance was measured at 590 nm using plate reader.

Experiment [2] has as its target T2, Prostaglandin G/H synthase 1 (Ovis aries, UniProt P05979).
T2 sequence (P05979 whole entry): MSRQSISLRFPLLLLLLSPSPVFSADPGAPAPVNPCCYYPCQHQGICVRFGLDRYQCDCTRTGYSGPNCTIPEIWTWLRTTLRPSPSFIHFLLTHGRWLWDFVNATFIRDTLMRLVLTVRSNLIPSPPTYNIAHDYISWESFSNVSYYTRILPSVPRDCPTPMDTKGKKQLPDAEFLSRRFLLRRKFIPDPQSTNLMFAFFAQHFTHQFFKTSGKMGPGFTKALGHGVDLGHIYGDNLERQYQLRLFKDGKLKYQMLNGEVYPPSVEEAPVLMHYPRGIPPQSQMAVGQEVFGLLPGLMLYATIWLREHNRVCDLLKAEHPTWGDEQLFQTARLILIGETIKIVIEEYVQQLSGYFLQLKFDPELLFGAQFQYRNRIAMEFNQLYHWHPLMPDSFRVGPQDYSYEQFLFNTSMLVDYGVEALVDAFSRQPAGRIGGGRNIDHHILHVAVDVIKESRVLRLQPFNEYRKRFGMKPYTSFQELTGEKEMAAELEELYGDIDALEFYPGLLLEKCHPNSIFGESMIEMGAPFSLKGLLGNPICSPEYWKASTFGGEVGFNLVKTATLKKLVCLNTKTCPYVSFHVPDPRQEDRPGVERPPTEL
As to the kind of experiment: In Vitro Cyclooxygenase (COX) Inhibition Assay. The procedure: as §1

The source of these data is BindingDB's records for doi:10.1016/j.bioorg.2016.12.008 (Fayoum University, 2017).

Take `N#Cc1c(-c2ccc(F)cc2)cc(-c2ccc([N+](=O)[O-])cc2)[nH]c1=O` [4-(4-Fluorophenyl)-6-(4-nitrophenyl)-2-oxo-1,2-dihydropyridine-3-carbonitrile (4d)]: the IC50 was 4.6 µM in experiment [1] and 13.4 µM in experiment [2].
The corresponding values for `CS(=O)(=O)Nc1ccc(C2=NN(c3ccc(S(N)(=O)=O)cc3)C(c3cccs3)C2)cc1` (stereo not drawn) [1-(4-Aminosulfonylphenyl)-5-(2-thienyl)-3-(4-methanesulfonylaminophenyl)-4,5-dihydro-1H-pyrazole (6f)] are 7.8 µM and 25.1 µM.
The like results for `Cc1ccc(-c2cc(-c3ccc(NS(C)(=O)=O)cc3)[nH]c(=O)c2C#N)cc1` [6-(4-Methanesulfonylaminophenyl)-2-oxo-4-(4-tolyl)-1,2-dihydropyridine-3-carbonitrile (4n)] were, in that order, 1.3 µM and 8.6 µM.
The corresponding values for `CS(=O)(=O)Nc1ccc(-c2cc(-c3ccccc3)c(C#N)c(=O)[nH]2)cc1` [6-(4-Methanesulfonylaminophenyl)-2-oxo-4-phenyl-1,2-dihydropyridine-3-carbonitrile (4m)] are 1.6 µM and 9.4 µM.
`CS(=O)(=O)Nc1ccc(-c2cc(-c3ccc(F)cc3)c(C#N)c(=O)[nH]2)cc1` [4-(4-Fluorophenyl)-6-(4-methanesulfonylaminophenyl)-2-oxo-1,2-dihydropyridine-3-carbonitrile (4p)]: the IC50 in experiment [1] came out at 2.5 µM; in experiment [2], 10.7 µM.
The corresponding values for `CS(=O)(=O)Nc1ccc(C2=NN(c3ccc(S(N)(=O)=O)cc3)C(c3ccccc3)C2)cc1` (stereo not drawn) [1-(4-Aminosulfonylphenyl)-3-(4-methanesulfonylaminophenyl)-5-phenyl-4,5-dihydro-1H-pyrazole (6a)] are 1.3 µM and 7.6 µM.
On to `CC(C)Cc1ccc(-c2cc(-c3cccs3)c(C#N)c(=O)[nH]2)cc1` [6-(4-Isobutylphenyl)-2-oxo-4-(2-thienyl)-1,2-dihydropyridine-3-carbonitrile (4l)], for which the figures for the IC50 in experiment [1] and in experiment [2] were 3.7 µM and 12.7 µM, respectively.
The corresponding values for `Cc1ccc(-c2cc(-c3ccc([N+](=O)[O-])cc3)[nH]c(=O)c2C#N)cc1` [6-(4-Nitrophenyl)-2-oxo-4-(p-tolyl)-1,2-dihydropyridine-3-carbonitrile (4b)] are 2.9 µM and 12.9 µM.
For the compound `N#Cc1c(-c2cccs2)cc(-c2ccc([N+](=O)[O-])cc2)[nH]c1=O` [6-(4-nitrophenyl)-2-oxo-4-(thiophen-2-yl)-1,2-dihydropyridine-3-carbonitrile (4f)], the IC50 in experiment [1] is 0.87 µM; in experiment [2], 6.8 µM.
The like results for `N#Cc1c(-c2ccccc2)cc(-c2ccc([N+](=O)[O-])cc2)[nH]c1=O` [6-(4-nitrophenyl)-2-oxo-4-phenyl-1,2-dihydropyridine-3-carbonitrile (4a)] were, in that order, 3.8 µM and 12.4 µM.
The corresponding values for `CS(=O)(=O)Nc1ccc(C2=NN(c3ccc(S(N)(=O)=O)cc3)C(c3ccc(F)cc3)C2)cc1` (stereo not drawn) [1-(4-Aminosulfonylphenyl)-5-(4-fluorophenyl)-3-(4-methanesulfonylaminophenyl)-4,5-dihydro-1H-pyrazole (6d)] are 3.9 µM and 18.7 µM.
Turning to `CS(=O)(=O)Nc1ccc(C2=NN(c3ccc(S(N)(=O)=O)cc3)C(c3ccco3)C2)cc1` (stereo not drawn) [1-(4-Aminosulfonylphenyl)-5-(2-furyl)-3-(4-methanesulfonylaminophenyl)-4,5-dihydro-1H-pyrazole (6e)], the IC50 came out at 3.5 µM in experiment [1] and 16.5 µM in experiment [2].
The like results for `Cc1ccc(C2CC(c3ccc(NS(C)(=O)=O)cc3)=NN2c2ccc(S(N)(=O)=O)cc2)cc1` (stereo not drawn) [1-(4-Aminosulfonylphenyl)-3-(4-methanesulfonylaminophenyl)-5-(4-tolyl)-4,5-dihydro-1H-pyrazole (6b)] were, in that order, 7.5 µM and 23.6 µM.
In the case of `Cc1ccc(-c2cc(-c3ccc(CC(C)C)cc3)[nH]c(=O)c2C#N)cc1` [6-(4-Isobutylphenyl)-2-oxo-4-(p-tolyl)-1,2-dihydropyridine-3-carbonitrile (4h)], the results for the IC50 in experiment [1] and in experiment [2] were 2.7 µM and 11.2 µM, respectively.
Regarding `CC(C)Cc1ccc(-c2cc(-c3ccc(Cl)cc3)c(C#N)c(=O)[nH]2)cc1` [4-(4-Chlorophenyl)-6-(4-isobutylphenyl)-2-oxo-1,2-dihydropyridine-3-carbonitrile (4i)], the IC50 in experiment [1] came to 5.1 µM; in experiment [2], 14.2 µM.
The corresponding values for `CS(=O)(=O)Nc1ccc(-c2cc(-c3ccco3)c(C#N)c(=O)[nH]2)cc1` [4-(2-Furyl)-6-(4-methanesulfonylaminophenyl)-2-oxo-1,2-dihydropyridine-3-carbonitrile (4q)] are 2.9 µM and 9.8 µM.
On to `CC(C)Cc1ccc(-c2cc(-c3ccccc3)c(C#N)c(=O)[nH]2)cc1` [6-(4-Isobutylphenyl)-2-oxo-4-phenyl-1,2-dihydropyridine-3-carbonitrile (4g)], for which the IC50 in experiment [1] is 3.4 µM; in experiment [2] it was 13.1 µM.
Turning to `CC(C)Cc1ccc(-c2cc(-c3ccco3)c(C#N)c(=O)[nH]2)cc1` [4-(2-Furyl)-6-(4-isobutylphenyl)-2-oxo-1,2-dihydropyridine-3-carbonitrile (4k)], the figures for the IC50 in experiment [1] and in experiment [2] were 1.11 µM and 7.3 µM, respectively.
Consider `N#Cc1c(-c2ccc(Cl)cc2)cc(-c2ccc([N+](=O)[O-])cc2)[nH]c1=O` [4-(4-chlorophenyl)-6-(4-nitrophenyl)-2-oxo-1,2-dihydropyridine-3-carbonitrile (4c)], for which the figures for the IC50 in experiment [1] and in experiment [2] were 7.3 µM and 23.4 µM, respectively.
For the compound `CS(=O)(=O)Nc1ccc(-c2cc(-c3ccc(Cl)cc3)c(C#N)c(=O)[nH]2)cc1` [4-(4-Chlorophenyl)-6-(4-methanesulfonylaminophenyl)-2-oxo-1,2-dihydropyridine-3-carbonitrile (4o)], the half-maximal inhibitory concentration (IC50) in experiment [1] amounted to 3.4 µM; in experiment [2], 15.3 µM.
The corresponding values for `CS(=O)(=O)Nc1ccc(C2=NN(c3ccc(S(N)(=O)=O)cc3)C(c3ccc(Cl)cc3)C2)cc1` (stereo not drawn) [1-(4-Aminosulfonylphenyl)-5-(4-chlorophenyl)-3-(4-methanesulfonylaminophenyl)-4,5-dihydro-1H-pyrazole (6c)] are 2.4 µM and 9.7 µM.
The corresponding values for `CC(C)Cc1ccc(-c2cc(-c3ccc(F)cc3)c(C#N)c(=O)[nH]2)cc1` [4-(4-Fluorophenyl)-6-(4-isobutylphenyl)-2-oxo-1,2-dihydropyridine-3-carbonitrile (4j)] are 0.93 µM and 6.5 µM.
The corresponding values for `CS(=O)(=O)Nc1ccc(-c2cc(-c3cccs3)c(C#N)c(=O)[nH]2)cc1` [6-(4-Methanesulfonylaminophenyl)-2-oxo-4-(2-thienyl)-1,2-dihydropyridine-3-carbonitrile (4r)] are 10.2 µM and 32.1 µM.
Take `N#Cc1c(-c2ccco2)cc(-c2ccc([N+](=O)[O-])cc2)[nH]c1=O` [4-(2-Furyl)-6-(4-nitrophenyl)-2-oxo-1,2-dihydropyridine-3-carbonitrile (4e)]: the IC50 worked out at 1.2 µM in experiment [1] and 8.9 µM in experiment [2].
